Laboratory results taken from ChEMBL document CHEMBL6083204, “Synthesis of a celastrol derivative as a cancer stem cell inhibitor through regulation of the STAT3 pathway for treatment of ovarian cancer” (RSC Med Chem, 2024).

Assays:
[1] = tested on: A2780; assay: Antiproliferative activity against human A2780 cells assessed as inhibition of cell growth incubated for 72 hrs by MTT assay; format: functional, cell-based; details: A2780, 72 h
[2] = tested on: OVCAR-3; assay: Antiproliferative activity against human OVCAR-3 cells assessed as inhibition of cell growth incubated for 72 hrs by MTT assay; format: functional, cell-based; details: OVCAR-3, 72 h
[3] = Cytotoxicity against human IOSE80 cells assessed as inhibition of cell growth incubated for 72 hrs by MTT assay; format: toxicity, cell-based
[4] = tested on: SK-OV-3; assay: Antiproliferative activity against human SK-OV-3 cells assessed as inhibition of cell growth incubated for 72 hrs by MTT assay; format: functional, cell-based; details: SK-OV-3, 72 h
[5] = Selectivity index, ratio of IC50 for cytotoxicity against human IOSE80 cells to IC50 for cytotoxicity against human SK-OV-3 cells

Row | Compound | IC50 [1] | IC50 [2] | IC50 at 72 h [3] | IC50 [4] | Ratio IC50 [5]
1 | CC1=C(O)C(=O)C=C2C1=CC=C1[C@@]2(C)CC[C@@]2(C)[C@@H]3C[C@](C)(C(=O)O)CC[C@]3(C)CC[C@]12C [CELASTROL] | 1.99 µM | 0.84 µM | 2.38 µM | 1.27 µM | 1.87
2 | COc1cccc2c1C(=O)c1c(O)c3c(c(O)c1C2=O)C[C@@](O)(C(=O)CO)C[C@@H]3O[C@H]1C[C@H](N)[C@H](O)[C@H](C)O1 [DOXORUBICIN] | 4.18 µM | – | 0.76 µM | 1.68 µM | –
